Assay results as given in US8445501B2, “Substituted 7-carboxamido-pyrrolo[3,2-d]pyrimidines” (Takeda GmbH, priority 2008, dated 2013).

Target: T1, human PDE5 (Homo sapiens, UniProt O76074)
T1 construct: from tissue; host or cells: platelets from fresh blood of human donors (lysate, 10,000 g supernatant)
Assay: Inhibition of the type 5 phosphodiesterase (PDE5) activity, modified SPA test with platelet lysate
Assay type: biochemical
Conditions: PDE5 from human platelet lysate, 0.5 μM cGMP
Method in brief: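 Human platelet lysate (10,000 g supernatant) as PDE5 source in SPA with 0.5 μM cGMP plus [3H]cGMP tracer, pH 7.4, 5 mM Mg2+, 1 μM motapizone and 10 nM PDE2 inhibitor; 10–20% conversion. 5 min preincubation, 15 min at 37 °C, stopped with SPA beads/IBMX. IC50 by non-linear regression.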

IC50 [nM]	Structure (SMILES)
0.234	CCC(=O)N1CC[C@@H](NC(=O)c2c[nH]c3c(-c4cc(OC)c(F)cc4OCC4CC4)ncnc23)C1 [Example 104, 4-(2-Cyclopropylmethoxy-4-fluoro-5-methoxy-phenyl)-5H-pyrrolo[3,2-d]pyrimidine-7-carboxylic acid ((R)-1-propionyl-pyrrolidin-3-yl)-amide]
0.479	COc1ccc(-c2ncnc3c(C(=O)N[C@H]4CC[C@H](NC(=O)[C@H](C)O)CC4)c[nH]c23)c(OCC2CC2)c1 [Example 200, trans-4-(2-Cyclopropylmethoxy-4-methoxy-phenyl)-5H-pyrrolo[3,2-d]pyrimidine-7-carboxylic acid [4-((S)-2-hydroxy-propionylamino)-cyclohexyl]-amide]
2.57	C[C@H](O)C(=O)N[C@H]1CC[C@@H](NC(=O)c2c[nH]c3c(-c4ccc(F)cc4OCC4CC4)ncnc23)CC1 [Example 215, cis-4-(2-Cyclopropylmethoxy-4-fluoro-phenyl)-5H-pyrrolo[3,2-d]pyrimidine-7-carboxylic acid [4-((S)-2-hydroxy-propionylamino)-cyclohexyl]-amide]
1.07	CCOC(=O)N[C@H]1CC[C@@H](NC(=O)c2c[nH]c3c(-c4cc(OC)ccc4OCC4CC4)ncnc23)CC1 [Example 70, cis-(4-{[4-(2-Cyclopropylmethoxy-5-methoxy-phenyl)-5H-pyrrolo[3,2-d]pyrimidine-7-carbonyl]-amino}-cyclohexyl)-carbamic acid ethyl ester]
9.33	COCCOc1cc(OC)ccc1-c1ncnc2c(C(=O)N[C@H]3CC[C@H](NC(=O)C4(O)CC4)CC3)c[nH]c12 [Example 257, trans-4-[4-Methoxy-2-(2-methoxy-ethoxy)-phenyl]-5H-pyrrolo[3,2-d]pyrimidine-7-carboxylic acid {-[(1-hydroxy-cyclopropanecarbonyl)-amino]-cyclohexyl}-amide]
2.14	CCOC(=O)N[C@H]1CC[C@@H](NC(=O)c2c[nH]c3c(-c4ccc(F)cc4OCC4CC4)ncnc23)CC1 [Example 77, cis-(4-{[4-(2-Cyclopropylmethoxy-4-fluoro-phenyl)-5H-pyrrolo[3,2-d]pyrimidine-7-carbonyl]-amino}-cyclohexyl)-carbamic acid ethyl ester]
0.741	COc1ccc(-c2ncnc3c(C(=O)NC4CCN(C(C)=O)CC4)c[nH]c23)c(OCC2CC2)c1 [Example 59, 4-(2-Cyclopropylmethoxy-4-methoxy-phenyl)-5H-pyrrolo[3,2-d]pyrimidine-7-carboxylic acid (1-acetyl-piperidin-4-yl)-amide]
0.245	COc1ccc(-c2ncnc3c(C(=O)NC4CCN(C(=O)C5(O)CC5)CC4)c[nH]c23)c(OCC2CC2)c1 [Example 207, 4-(2-Cyclopropylmethoxy-4-methoxy-phenyl)-5H-pyrrolo[3,2-d]pyrimidine-7-carboxylic acid {1-[1-(1-hydroxy-cyclopropyl)-methanoyl]-piperidin-4-yl}-amide]
1.82	CC(=O)N1CCC(NC(=O)c2c[nH]c3c(-c4cc(C)ccc4OCC4CC4)ncnc23)CC1 [Example 123, 4-(2-Cyclopropylmethoxy-5-methyl-phenyl)-5H-pyrrolo[3,2-d]pyrimidine-7-carboxylic acid (1-acetyl-piperidin-4-yl)-amide]
0.117	CCC(=O)N1CCC(NC(=O)c2c[nH]c3c(-c4cc(OC)c(F)cc4OCC4CC4)ncnc23)CC1 [Example 97, 4-(2-Cyclopropylmethoxy-4-fluoro-5-methoxy-phenyl)-5H-pyrrolo[3,2-d]pyrimidine-7-carboxylic acid (1-propionyl-piperidin-4-yl)-amide]
11	COCCOc1ccc2c(c1-c1ncnc3c(C(=O)N[C@H]4CC[C@H](NC(=O)C5CC5)CC4)c[nH]c13)OCO2 [Example 162, trans-4-[5-(2-Methoxy-ethoxy)-benzo[1,3]dioxol-4-yl]-5H-pyrrolo[3,2-d]pyrimidine-7-carboxylic acid (4-(cyclopropanecarbonyl-amino)-cyclohexyl]-amide]
14.1	C[C@H](O)C(=O)N1CCC(NC(=O)c2c[nH]c3c(-c4ccccc4OCC4CC4)ncnc23)CC1 [Example 227, 4-(2-Cyclopropylmethoxy-phenyl)-5H-pyrrolo[3,2-d]pyrimidine-7-carboxylic acid [1-((S)-2-hydroxy-propionyl)-piperidin-4-yl]-amide]
0.977	COc1cc(OCC2CC2)c(-c2ncnc3c(C(=O)N[C@H]4CC[C@H](NC(=O)[C@H](C)O)CC4)c[nH]c23)cc1F [Example 234, trans-4-(2-Cyclopropylmethoxy-5-fluoro-4-methoxy-phenyl)-5H-pyrrolo[3,2-d]pyrimidine-7-carboxylic acid [4-((S)-2-hydroxy-propionylamino)-cyclohexyl]-amide]
0.55	COc1ccc(OCC2CC2)c(-c2ncnc3c(C(=O)NC4CCN(C(=O)C5(O)CC5)CC4)c[nH]c23)c1 [Example 213, 4-(2-Cyclopropylmethoxy-5-methoxy-phenyl)-5H-pyrrolo[3,2-d]pyrimidine-7-carboxylic acid [1-(1-hydroxy-cyclopropanecarbonyl)-piperidin-4-yl]-amide]

Second part, the molecule before the results:

Structure (SMILES)	IC50 [nM]
CCCCOc1ccc2c(c1-c1ncnc3c(C(=O)NC4CCN(C=O)CC4)c[nH]c13)OCO2 [Example 146, 4-(5-Butoxy-benzo[1,3]dioxol-4-yl)-5H-pyrrolo[3,2-d]pyrimidine-7-carboxylic acid (1-formyl-piperidin-4-yl)-amide]	0.229
C[C@H](O)C(=O)N1CCC[C@@H](NC(=O)c2c[nH]c3c(-c4c(OCC5CC5)ccc5c4OCO5)ncnc23)C1 [Example 198, 4-(5-Cyclopropylmethoxy-benzo[1,3]dioxol-4-yl)-5H-pyrrolo[3,2-d]pyrimidine-7-carboxylic acid [(R)-1-((S)-2-hydroxy-propanoyl)piperidin-3-yl]-amide]	0.617
O=C(NCC1CCN(C(=O)C2(O)CC2)CC1)c1c[nH]c2c(-c3c(OCC4CC4)ccc4c3OCO4)ncnc12 [Example 188, 4-(5-Cyclopropylmethoxy-benzo[1,3]dioxol-4-yl)-5H-pyrrolo[3,2-d]pyrimidine-7-carboxylic acid {1-[1-(1-hydroxy-cyclopropyl)-methanoyl]-piperidin-4-ylmethyl}-amide]	0.513
COCCOc1cc(OC)ccc1-c1ncnc2c(C(=O)NC3CCN(C(=O)COC)CC3)c[nH]c12 [Example 160, 4-[4-Methoxy-2-(2-methoxy-ethoxy)-phenyl]-5H-pyrrolo[3,2-d]pyrimidine-7-carboxylic acid [1-(2-methoxy-acetyl)-piperidin-4-yl]-amide]	23.4
COCC(=O)N1CCC[C@H](NC(=O)c2c[nH]c3c(-c4cc(F)c(OC)cc4OCC4CC4)ncnc23)C1 [Example 115, 4-(2-Cyclopropylmethoxy-5-fluoro-4-methoxy-phenyl)-5H-pyrrolo[3,2-d]pyrimidine-7-carboxylic acid [(S)-1-(2-methoxy-ethanoyl)-piperidin-3-yl]amide]	3.8
CCCCOc1ccc2c(c1-c1ncnc3c(C(=O)N[C@@H]4CCN(C(=O)[C@H](C)O)C4)c[nH]c13)OCO2 [Example 254, 4-(5-Butoxy-benzo[1,3]dioxol-4-yl)-5H-pyrrolo[3,2-d]pyrimidine-7-carboxylic acid [(R)-1-((S)-2-hydroxy-propionyl)-pyrrolidin-3-yl]amide]	0.589
CCOC(=O)N1CCC(CNC(=O)c2c[nH]c3c(-c4c(OCC5CC5)ccc5c4OCO5)ncnc23)CC1 [Example 27, 4-[({1-[4-(5-Cyclopropylmethoxy-benzo[1,3]dioxol-4-yl)-5H-pyrrolo[3,2-d]pyrimidin-7-yl]-methanoyl}-amino)-methyl]-piperidine-1-carboxylic acid ethyl ester]	0.372
CCCOc1ccc2c(c1-c1ncnc3c(C(=O)N[C@@H]4CCN(C(=O)OCC)C4)c[nH]c13)OCO2 [Example 142, (R)-3-{[4-(5-Propoxy-benzo[1,3]dioxol-4-yl)-5H-pyrrolo[3,2-d]pyrimidine-7-carbonyl]amino}-pyrrolidine-1-carboxylic acid ethyl ester]	0.617
O=C(NC1CCN(C(=O)CO)CC1)c1c[nH]c2c(-c3cc(F)c(OC(F)F)cc3OCC3CC3)ncnc12 [Example 283, 4-[2-Cyclopropylmethoxy-4-(1,1-difluoro-methoxy)-5-fluoro-phenyl]-5H-pyrrolo[3,2-d]pyrimidine-7-carboxylic acid [1-(2-hydroxy-acetyl)piperidin-4-yl]-amide]	5.13
CCOc1ccc2c(c1-c1ncnc3c(C(=O)NC4CCN(C(=O)CC)CC4)c[nH]c13)OCO2 [Example 133, 4-(5-Ethoxy-benzo[1,3]dioxol-4-yl)-5H-pyrrolo[3,2-d]pyrimidine-7-carboxylic acid (1-propionyl-piperidin-4-yl)-amide]	0.631
CCOc1ccc2c(c1-c1ncnc3c(C(=O)NC4CCN(C(=O)[C@H](C)O)CC4)c[nH]c13)OCO2 [Example 249, 4-(5-Ethoxy-benzo[1,3]dioxol-4-yl)-5H-pyrrolo[3,2-d]pyrimidine-7-carboxylic acid [1-((S)-2-hydroxy-propionyl)-piperidin-4-yl]-amide]	2.14
O=C(NC1CCN(C(=O)C2CC2)CC1)c1c[nH]c2c(-c3c(OCC4CCC4)ccc4c3OCO4)ncnc12 [Example 130, 4-(5-Cyclobutylmethoxy-benzo[1,3]dioxol-4-yl)-5H-pyrrolo[3,2-d]pyrimidine-7-carboxylic acid [1-(1-cyclopropyl-methanoyl)-piperidin-4-yl]-amide]	0.126
COc1cc(OCC2CC2)c(-c2ncnc3c(C(=O)N[C@@H]4CCN(C(=O)[C@H](C)O)C4)c[nH]c23)cc1F [Example 242, 4-(2-Cyclopropylmethoxy-5-fluoro-4-methoxy-phenyl)-5H-pyrrolo[3,2-d]pyrimidine-7-carboxylic acid [(R)-1-((S)-2-hydroxy-propionyl)pyrrolidin-3-yl]-amide]	0.977
